According to patent US4962111A (priority 1989, dated 1990):
In brackets after ≈: the same amount, converted by molar mass. Several values for one entry are separate records, joined by “and”; a condition that tells them apart may be missing. Equal values may be shown once.

Assays:
[1] = system: Mycobacterium tuberculosis (laboratory mutant, nitrosoguanidine induced, resistant to pyrazinamide); type: cell-based; set-up: MIC: unit not given beside the values; settings: for MIC: pH 5.8
[2] = system: M. tb. 311; assay: microbe, parasite or virus in culture; type: cell-based; settings: Mycobacterium tuberculosis, 99% (2 log) inhibition, pH 5.8
[3] = system: Mycobacterial populations; settings: cited from earlier work
[4] = system: Mycobacterium tuberculosis (laboratory mutant, nitrosoguanidine induced, resistant to pyrazinoic acid); type: cell-based; set-up: MIC: unit not given beside the values

SMILES | MIC [2] [µg/mL] | MIC [1] | other results
NC(=O)c1cnccn1 [pyrazinamide] | > 200 | – | concentration required to achieve a 99% inhibition of growth [1]: > 200 µg/mL; development of resistance ([3]; when used alone): resistance develops quickly; concentration required to achieve a 99% inhibition of growth [4]: > 200 µg/mL
CCCOC(=O)c1cnccn1 [n-Propyl Pyrazinoate] | 6.25 (≈ 37.6 µM) | 12.5 and 6.25 | –
Cc1ccc(OC(=O)c2cnccn2)cc1 [p-Tolyl Pyrazinoate] | 12.5 (≈ 58.4 µM) | 12.5 and 25 | MIC ([4]; pH 5.8): 12.5 and 6.25
O=C(OCC(F)(F)F)c1cnccn1 [β, β, β-Trifluoroethyl Pyrazinoate] | 25 (≈ 121 µM) | – | –
C=CCOC(=O)c1cnccn1 [Allyl Pyrazinoate] | 6.25 (≈ 38.1 µM) | – | –
Nc1ccc(C(=O)O)c(O)c1 [p-aminosalicylic acid] | – | – | suppression of emergence of resistance ([3]; combination with streptomycin): can delay development of streptomycin resistance
